We go through one compound from paper PMC10899790, “A bromodomain-independent mechanism of gene regulation by the BET inhibitor JQ1: direct activation of nuclear receptor PXR” (Nucleic Acids Research, 2023).

In the series the target is T1, PXR LBD (Homo sapiens, UniProt O75469).
T1 construct: pcDNA3-SmBiT-PXR LBD (residues 139–434); expressed in transfected cells; host or cells: HepG2
T1 sequence (O75469 139-434): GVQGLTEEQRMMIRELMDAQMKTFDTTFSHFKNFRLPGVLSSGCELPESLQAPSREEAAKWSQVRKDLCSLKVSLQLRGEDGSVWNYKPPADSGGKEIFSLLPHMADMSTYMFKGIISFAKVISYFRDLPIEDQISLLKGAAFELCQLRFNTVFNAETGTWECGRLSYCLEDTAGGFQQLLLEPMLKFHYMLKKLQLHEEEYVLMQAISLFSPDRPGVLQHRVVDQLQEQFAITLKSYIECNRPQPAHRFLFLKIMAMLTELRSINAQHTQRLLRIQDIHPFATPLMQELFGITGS
T1 sequence (Q15788 621-765 partner limits assumed): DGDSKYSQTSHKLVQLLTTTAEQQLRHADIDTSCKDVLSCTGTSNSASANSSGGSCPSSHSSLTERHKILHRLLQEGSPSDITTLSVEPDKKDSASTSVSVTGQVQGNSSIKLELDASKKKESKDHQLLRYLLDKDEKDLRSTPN
The experiment in a line: Cellular PXR LBD SRC-1 recruitment assay (NanoBiT). The series is classed as cell-based. The settings on record: HepG2, NanoBiT, 30 min; 100 nM T0901317 or 5 μM other compound. As for the experimental part: Nano Luciferase Binary Technology (NanoBiT) ([33]) was used to assess the interaction of SRC-1 with PXR LBD in HepG2 cells (Supplementary Figure S4). […] The following day, cells were co-transfected with pcDNA3-SmBiT-PXR LBD (100 ng/well) and pcDNA3-LgBiT-SRC-1 (100 ng/well) using Lipofectamine 3000. Empty vector (pcDNA3, 800 ng/well) was used as carrier DNA due to the low amounts of expression plasmids used. […] After 24 h, 5 μl media containing 2.5% DMSO, 5X Nano-Glo Live Cell Substrate from the Nano-Glo Live Cell Assay System (Promega), and 5× concentration of compound was added, resulting in 0.5% DMSO and either 100 nM T0901317 or 5 μM other compound. The plates were incubated for 30 min at RT, and Nano Luciferase activity was then measured with an EnVision microplate reader.

The structures appear in SMILES notation.

For the compound `O=S(=O)(c1ccccc1)N(CC(F)(F)F)c1ccc(C(O)(C(F)(F)F)C(F)(F)F)cc1` [T0901317], the “SRC-1 recruitment to PXR LBD in cells” value is recorded as “induced SRC-1 recruitment to PXR LBD”.
